“And” between values parts separate entries of the source, which are not always exact repeats. Equal values may be shown once.
Columns and labels:
[1] = SABRE-SHEATH hyperpolarization, 13C polarization quantified at 1.4 T benchtop NMR; type: physicochemical
Description: A previously reported setup and experimental protocol has been used to prepare high P13C of up to ≈14.5% of 30 mM [1-^13C]pyruvate in methanol, which was confirmed after transferring the HP samples from the polarizer into a 1.4 T benchtop ^1H/^13C NMR system. The mean of N=19 experiments from 9 samples measured on 5 different days under the same conditions was 8±2%. […] These hyperpolarization values correspond to ^13C enhancement ε13C of ≈75,000-fold. The optimal experimental parameters are obtained via sweeping the static magnetic field (optimum transfer field BT≈0.4 μT) and temperature (TT≈10° C.) using a p-H2 flow rate of 75 standard cubic centimeters per minute (scc/m), and ≈7 bar total pressure, FIGS. 4A-4B, respectively.
CD3OD is widely used as the SABRE-reaction-hosting solvent because it provides convenient means of attaining high-field NMR spectrometer lock. However, non-deuterated polarization media may be preferred for biomedical applications. For this reason, systematic relaxation dynamics studies were performed comparing CD3OD, CH3OH, and C2H5OH for SABRE-SHEATH [1-^13C]pyruvate hyperpolarization, investigating relevant parameters for these solvents and for fixed concentrations of pyruvate, SABRE catalyst, and DMSO (30 mM, 6 mM, and 40 mM, respectively). However, the ethanol sample was prepared with only 6 mM pyruvate and 10% H2O due to limited solubility. The optimal Br was similar in all investigated samples (≈0.4 μT, FIG. 4A). […] (FIG. 4B). Thus, all the experiments described below were performed using these optimized Br and Tr parameters.
Preparation of samples: Parahydrogen was enriched to >99.10% and filled into aluminum cylinders at 350 psi using a setup described previously. The SABRE samples were prepared in CD3OD (CAS: DLM-24-25), CH3OH (CAS: 67-56-1), or ethanol (CAS: 64-17-5) using the stated concentration of sodium pyruvate (in most cases 30 mM, natural abundance—CAS: 113-24-6; [1-^13C]-labeled—CAS: 490709-250 MG), an iridium catalyst at 6 mM concentration synthesized as described previously, doped with 40 mM dimethyl sulfoxide (DMSO) to block one active center of the catalyst and to avoid pyruvate from binding to the catalyst at two sites. Oxygen was removed from the samples by guiding argon gas at approximately ambient pressure through the samples for ˜1 min. Also, oxygen was removed from all solvents used for the preparation of the samples (methanol or ethanol) or for the precipitation of pyruvate (ethyl acetate (EtAc), room temperature, CAS: 141-78-6) prior to mixing them to the catalyst substrate solutions. For the SABRE experiments, the samples were filled into medium wall, or in case of precipitation studies, into regular wall NMR tubes (SKU: WG-1000-8, outer diameter 5 mm, inner diameter 4 mm and length 8 inches). Note that the total volume of the catalyst-substrate sample was 600 μL (in the baseline and solvent study) or 100 μL in experiments were precipitation and phase separation were performed. In case of dissolution SABRE, 300 μL of room-temperature H2O (HPLC grade-submicron filtered) or D2O (CAS: 7789-20-0) were added.
SABRE hyperpolarization setup: The experimental setup has been used previously but will be described in much greater detail elsewhere. Briefly, it consisted of a 3-layer mu-metal of 3″ I.D. and 9″ DEPTH to shield external magnetic fields (Magnetic Shield Corporation, ZG-203), combined with a custom-made solenoid to generate a static magnetic field, B0, of ˜300 nT (28 AWG wire, 650 windings, 7″ homogeneous length). Note that this coil provided a constant magnetic field here (5 VDC power supply connected to the solenoid via a resistor board to regulate the current and effectively set the magnetic field). […]

[2] = Precipitation without water addition: 13C polarization of residual dissolved pyruvate in organic phase; type: physicochemical; details: for P13C in precipitated sample, no water added / 13C polarization in precipitated sample, no water added: residual dissolved pyruvate in EtAc/CH3OH
Description: To investigate the impact of precipitate relaxation in variable magnetic fields during the dissolution process, the Re-D SABRE experiment was repeated, omitting the addition of water after precipitation (i.e., the decay of ^13C HP signal in the dissolved phase of the precipitated samples was measured). […] For (iii), P13C was still much lower compared to the sample that rested at the 1.4 T magnet (setup iv), i.e., P13C=0.08±0.02% and P13C=3.4±0.9%, respectively—this signal is entirely derived from the remaining dissolved pyruvate in solution (2.3±0.6 mM in the 500 μL sample of EtAc and CH3OH, FIG. 17) not from the precipitated micro-crystalline phase. […] This observation is important because it means the Re-D SABRE process can be successfully performed at storage fields as low as 0.3 T. The rapid ^13C T1 of HP [1-^13C]pyruvate in the EtAc fraction at Earth's field, estimated to be <1.3 s, may be caused by the high catalyst: substrate ratio in the EtAc.
Description of the magnets used in the precipitation and relaxation study: The precipitation and phase separation approach was investigated at 4 different magnetic fields: (i) Earth's field; (ii) 10 mT; (iii) 0.3 T; and (iv) 1.4 T. For (i), the samples were positioned in a plastic holder at a defined position in the laboratory at which a magnetic field of ≈40 μT was measured. For (ii), a modified setup of permanent magnets creating a 10 mT magnetic field over a volume of ≈20×10×10 cm^3 was employed. For (iii), a hollow cylindrical magnet (K&J Magnetics, Inc., P/N RY04Y0) was used with a length of 5.1 cm and an inner bore of approximately 6.4 mm diameter in which the NMR tube was positioned. For (iv), the NMR benchtop spectrometer was used, which approximately provides the constant 1.4 T field up to 10 cm above the magnet center.

CC(=O)[13C](=O)O [[1-^13C]pyruvate]
fold lower P13C compared to CH3OH and CD3OD ([1]; 6 mM in 90% C2H5OH + 10% H2O): 1.4 fold | P13C ([1]; 30 mM in CD3OD, representative polarization build-up at 0.4 μT): 8.5±0.1% | P13C ([1]; 30 mM in CH3OH, representative polarization build-up at 0.4 μT): 7.8±0.1% | P13C, mean ([1]; 30 mM in methanol, N=19 experiments from 9 samples on 5 days, inter-day mean with s.d.): 8±2% | P13C, maximum ([1]; 30 mM in methanol, SABRE-SHEATH, detected at 1.4 T): ≈ 14.5% and 14.5% | P13C ([1]; 60 mM in CH3OH, 6 mM catalyst, p-H2 80 scc/m): 3.7±0.06% | P13C, mean base-line before precipitation ([1]; in CH3OH, batch used for filtering tests): 10±1% | 13C enhancement ε13C ([1]; in methanol, vs thermal polarization at 1.4 T): ≈ 75,000 fold | P13C in precipitated sample, no water added ([2]; 0.3 T (iii)): 0.08±0.02% | P13C in precipitated sample, no water added ([2]; 1.4 T (iv)): 3.4±0.9% | 13C polarization in precipitated sample, no water added ([2]; 10 mT (ii)): no measurable ^13C polarization was observed | 13C polarization in precipitated sample, no water added ([2]; Earth's field (i)): no measurable ^13C polarization was observed | P13C in (iii) 0.3 T lower than in (iv) 1.4 T ([2]; dissolved phase in EtAc fraction): ≈ 40 times

Source: patent US20260048155A1, “BIOCOMPATIBLE PARAHYDROGEN HYPERPOLARIZED SOLUTIONS BY PRECIPITATION AND RE-DISSOLUTION” (North Carolina State University, priority 2022, published 2026)
